Reference: PMC12040169 (PLOS Biology, 2025)

Legend:
[1] = system: T1, CTL2-GFP (C. trachomatis L2/434/Bu, GFP-expressing); assay: microbe, parasite or virus in culture; design: Intracellular C. trachomatis growth in HeLa cells, bulk GFP fluorescence relative to DMSO; conditions: Chlamydia trachomatis, HeLa, 28.5 h; bulk GFP, mean of 2; read-out: % of control remaining
T1 construct: L2/434/Bu, GFP-expressing
Protocol: MICs were calculated as described above.

in vitro [2] = conditions: human, hela cells, % viability
[3] = system: T2, C. trachomatis L2/434/Bu expressing GFP (CTL2-GFP); assay: microbe, parasite or virus in culture; design: C. trachomatis total inclusion area by high-content imaging, normalised to DMSO; conditions: Chlamydia trachomatis, HeLa, 28.5 h; total inclusion area; read-out: % of control remaining
T2 construct: L2/434/Bu GFP intracellular growth in HeLa cells
Procedure, shortened: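 First, bulk GFP and resorufin signals were measured in compound-treated infected cultures. Cells were next fixed and stained with Hoechst. Finally, high-content imaging quantified chlamydial inclusions (area, number) and host nuclei, and MICs were calculated.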

in vitro [4] = assay: in vitro; design: Viability of infected HeLa host cells, resazurin conversion, bulk resorufin fluorescence relative to DMSO; conditions: human, hela cells; bulk resorufin, mean of 2

Compound	activity at 1 µM [1] [%]	activity at 5 µM [1] [%]	activity at 10 µM [1] [%]	viability at 28.5 h, 10 µM (in vitro [2]) [%]	activity at 1 µM [3] [%]	activity at 5 µM [3] [%]	activity at 10 µM [3] [%]	viability at 28.5 h, 1 µM (in vitro [4]) [%]	viability at 28.5 h, 5 µM (in vitro [4]) [%]	viability at 28.5 h, 10 µM (in vitro [4]) [%]
CCOc1ccc(OCC)c2c1n(C)c(SC)[n+]2C [CBK005720G]	139	64.8	9.96	92.1	97.5	27.2	3.38	90.5	86.2	83.6
OC(CN1CCN(Cc2ccccc2)CC1)Cn1c2ccc(Br)cc2c2cc(Br)ccc21 (stereo not drawn) [CBK262203]	104	98.6	88.8	94.4	102	94.9	35	94.6	90.4	90
COc1ccc(C2CC(=O)C=C(Nc3cc(Cl)ccc3O)C2)cc1 (stereo not drawn) [CBK263542]	86	0	9.05	105	81.9	0.174	3.14	90.9	101	87.8
COc1cc2c(cc1CNC(=O)c1cn(CCN)nn1)CCC2 [CBK306886]	167	109	35.5	84.7	176	112	45.1	97.3	96.7	92.4
CCC(Sc1nnc2c(n1)[nH]c1ccccc12)C(=O)N1c2ccccc2Sc2ccccc21 (stereo not drawn) [CBK263929]	60.4	52.9	44.5	95.1	32.8	30.8	13.4	94.1	89.8	88.6
O=C(Nc1cc(Cl)nc(Cl)c1)N(Cc1ccc2ccccc2c1)CC1CCNCC1 [CBK049773]	131	84.2	61.7	105	120	75.2	44.5	95.5	95.6	96.4
O=C(N/N=C/c1c(O)ccc2ccccc12)c1ccc(CO)nc1 [CBK261375]	130	69	32.3	84.7	112	72.5	32.1	89.8	84.2	76.9
CC(=O)c1cc(-c2cccnc2)cs1 [CBK017637]	140	120	123	82.4	86.9	83.4	98.2	113	110	110
Cc1cc2nc(-c3ccccn3)[nH]c2cc1C [CBK000122]	129	36.8	14.3	119	97.4	31	9.06	94.7	90.3	89.1
COc1ccc([C@@H]2CN(C)C[C@H]2NC(=O)Nc2ccc(Cl)c(Cl)c2)cc1OC [CBK081111]	118	21.4	8.62	99.3	105	25.8	3.39	92.3	92.2	88.4
COCC(=O)N[C@H]1C[C@H]2C(=O)Nc3ccc(/C=C/c4ccccc4)cc3C(=O)N2C1 [CBK289366]	87.5	12	2.8	90.2	105	11.7	1.71	93.1	96.4	98.1
CN(C)c1ncc(-c2cccc(Cl)c2)c(C2CCCN2C(=O)CC2CCCC2)n1 (stereo not drawn) [CBK286253]	135	91	43.9	120	105	82.7	44.1	97.3	106	110
